The results in this text go back to patent US9670261B2 (Sanofi, priority 2012, dated 2017).

*1 amine or outer side, *2 acyl side, *3 side chain or, on linkers, in order; H or OH if unused. Where a SMILES comes first, the peptide text is derived from it. Side-chain parts run from the residue outwards. [ ]: non-standard residue; d: D form. The star is where a group is joined. γGlu = O=C(O)[C@H](CCC(=O)[*:2])N[*:1]; Palmitoyl = CCCCCCCCCCCCCCCC(=O)*; Aib = CC(C)(N)C(=O)O Bounds are passed on as bounds.

The subject of data set [1] is female leptin-receptor deficient diabetic db/db mice. The data set can be described thus: Blood glucose and HbA1c in leptin-receptor deficient diabetic db/db mice (method 3). Format: in vivo. Particulars: single 100 μg/kg s.c., fed db/db mice. The source says: Female BKS.Cg-m+/+Leprdb/J (db/db) and BKS.Cg-m+/+Leprdb/+(lean control) mice were obtained from Charles River Laboratories, Germany, at an age of 9-10 weeks. The animals were housed in groups in a specific pathogen-free barrier facility on a 12-h light/dark cycle with free access to water and rodent-standard chow. After 1 week of acclimatization, blood samples were drawn from the tail without anaesthesia and blood glucose (method: d-glucose hexokinase, hemolysate, AU640 Beckman Coulter) and HbA1c level (method: hemolysate, Cobas6000 c501, Roche Diagnostics, Germany) were determined. […] The volume of administration was 5 mL/kg. The animals had access to water and chow during the experiment, food consumption was determined at all time points of blood sampling. […] Blood sampling was performed by tail incision without anaesthesia. […] At the end of the study, blood samples (tail, no anaesthesia) were analyzed for glucose and HbA1c. […] Statistical analyses were performed with Everstat 6.0 by repeated measures two-way ANOVA and Dunnett's post-hoc analyses. Differences versus vehicle-treated db/db control mice were considered statistically significant at the p<0.05 level. […] At predefined time points, more blood samples were taken to measure blood glucose and generate the blood glucose profile over 24 h. […] Blood glucose and HbA1c were determined before start of treatment and at the end of the study after 4 weeks of treatment. […] Before treatment started, no significant differences in blood glucose levels could be detected between db/db groups, only the lean control animals had significant lower glucose levels. During the 4 weeks of treatment, glucose levels increased in the vehicle-treated db/db control group, indicating a worsening of the diabetic situation.

The next data set has as its target T1, human GIP receptor (Homo sapiens, UniProt P48546).
T1 construct: expressed in transfected cells
T1 sequence (P48546 22-466): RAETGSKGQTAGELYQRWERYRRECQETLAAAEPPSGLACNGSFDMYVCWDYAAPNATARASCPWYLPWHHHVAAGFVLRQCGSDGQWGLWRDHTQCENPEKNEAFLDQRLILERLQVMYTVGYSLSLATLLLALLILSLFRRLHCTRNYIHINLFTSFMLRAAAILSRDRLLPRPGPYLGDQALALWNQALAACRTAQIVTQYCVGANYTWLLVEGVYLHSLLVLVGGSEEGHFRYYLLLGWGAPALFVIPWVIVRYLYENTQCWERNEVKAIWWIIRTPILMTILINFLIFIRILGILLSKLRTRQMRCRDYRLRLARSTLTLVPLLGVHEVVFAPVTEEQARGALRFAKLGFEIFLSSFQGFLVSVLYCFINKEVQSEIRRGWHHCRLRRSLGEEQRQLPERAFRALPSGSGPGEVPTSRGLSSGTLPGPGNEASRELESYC
Kind of data set: cAMP response (HTRF) of HEK-293 cells stably expressing human GIP receptor. Particulars: Table 7; cAMP formation; read-out: EC50 hGIP R. It counts as cell-based. An outline of the steps: (§1)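 HEK-293 cells stably expressing the receptor were resuspended at 400000 cells/ml in HBSS/20 mM HEPES/0.1% BSA buffer with 2 mM IBMX. Cells were stimulated with compound for 30 min at room temperature. Intracellular cAMP was measured by HTRF.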

A further data set can be described thus: in vivo. Particulars: mouse, sc, 1 mg/kg.
Another data set has as its system female NMRI-mice. The data set can be described thus: Automated assessment of 22-hours feed intake in mice. Format: in vivo. Particulars: 0.1 mg/kg s.c. On the procedure:
Female NMRI-mice of a body weight between 20 and 30 g were used. Mice were adapted to housing conditions for at least one week and for at least one day single-caged in the assessment equipment, when basal data were recorded simultaneously. On the study day, test product was administered subcutaneously close to the lights-off phase (12 h lights off) and assessment of feed consumption was directly started afterwards. Assessment included continued monitoring over 22 hours, while data are processed as mean over every 30 min. Repetition of this procedure over several days was possible. Restriction of assessment to 22 hours was for practical reasons to allow for reweighing of animals, refilling of feed and water and drug administration between procedures. Results could be assessed as cumulated data over 22 hours or differentiated to 30 min intervals. […] Statistical analyses were performed with Everstat 6.0 by two-way ANOVA on repeated measures and Dunnett's post-hoc analyses. Differences were considered statistically significant at the p<0.05 level. […] Lights-off phase (dark phase) started 4 hours later. […].

Data set [2] is described as follows: Pharmacokinetic testing in mice, s.c. Particulars: mouse, plasma, sc, 1 mg/kg.
Method: (§2) Mice were dosed 1 mg/kg subcutaneously (s.c.). The mice were sacrified and blood samples were collected after 0.25, 0.5, 1, 2, 4, 8, 16 and 24 hours post application. Plasma samples were analyzed after protein precipitation via liquid chromatography mass spectrometry (LC/MS). PK parameters and half-life were calculated using WinonLin Version 5.2.1 (non-compartment model).
The target in the next data set is T2, human GLP-1 receptor (Homo sapiens, UniProt P43220).
T2 construct: expressed in transfected cells
T2 sequence (P43220 24-463): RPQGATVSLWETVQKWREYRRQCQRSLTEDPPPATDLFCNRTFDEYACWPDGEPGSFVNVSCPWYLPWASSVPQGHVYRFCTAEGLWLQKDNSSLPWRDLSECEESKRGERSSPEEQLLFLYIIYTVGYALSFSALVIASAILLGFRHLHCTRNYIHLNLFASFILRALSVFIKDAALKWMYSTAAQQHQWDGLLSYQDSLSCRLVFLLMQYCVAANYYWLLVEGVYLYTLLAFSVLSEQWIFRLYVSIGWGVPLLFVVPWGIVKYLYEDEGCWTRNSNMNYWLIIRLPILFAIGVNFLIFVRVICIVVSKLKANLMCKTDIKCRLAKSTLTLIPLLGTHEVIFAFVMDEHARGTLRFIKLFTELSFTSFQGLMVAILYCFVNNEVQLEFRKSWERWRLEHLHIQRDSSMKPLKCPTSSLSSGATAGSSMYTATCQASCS
Kind of data set: cAMP response (HTRF) of HEK-293 cells stably expressing human GLP-1 receptor. It counts as cell-based. Particulars: Table 7; cAMP formation; read-out: EC50 hGLP-1 R. An outline of the steps: as §1

The next data set addresses T3, human glucagon receptor (Homo sapiens, UniProt P47871).
T3 construct: expressed in transfected cells
Kind of data set: cAMP response (HTRF) of HEK-293 cells stably expressing human glucagon receptor. Format: cell-based. Particulars: Table 7; cAMP formation; read-out: EC50 hGLUC R.

T3 sequence (P47871 26-477): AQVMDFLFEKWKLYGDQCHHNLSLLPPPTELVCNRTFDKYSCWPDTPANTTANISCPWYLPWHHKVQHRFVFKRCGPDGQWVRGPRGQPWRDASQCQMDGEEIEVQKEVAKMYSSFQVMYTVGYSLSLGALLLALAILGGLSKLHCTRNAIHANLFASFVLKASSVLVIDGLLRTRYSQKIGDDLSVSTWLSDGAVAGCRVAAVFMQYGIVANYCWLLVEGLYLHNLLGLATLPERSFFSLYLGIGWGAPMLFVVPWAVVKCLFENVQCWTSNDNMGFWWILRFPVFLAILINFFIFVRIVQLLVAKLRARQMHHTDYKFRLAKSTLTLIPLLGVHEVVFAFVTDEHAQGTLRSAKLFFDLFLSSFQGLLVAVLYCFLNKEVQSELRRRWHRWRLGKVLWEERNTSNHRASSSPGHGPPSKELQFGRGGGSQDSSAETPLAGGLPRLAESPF
Method for human glucagon receptor: cAMP content of cells was determined using a kit from Cisbio Corp. (cat. no. 62AM4PEC) based on HTRF (Homogenous Time Resolved Fluorescence). For preparation, cells were split into T175 culture flasks and grown overnight to near confluency in medium (DMEM/10% FBS). Medium was then removed and cells washed with PBS lacking calcium and magnesium, followed by proteinase treatment with accutase (Sigma-Aldrich cat. no. A6964). Detached cells were washed and resuspended in assay buffer (1×HBSS; 20 mM HEPES, 0.1% BSA, 2 mM IBMX) and cellular density determined. They were then diluted to 400000 cells/ml and 25 μl-aliquots dispensed into the wells of 96-well plates. For measurement, 25 μl of test compound in assay buffer was added to the wells, followed by incubation for 30 minutes at room temperature.
Method for in vivo: as §2

`CCCCCCCCCCCCCCCC(=O)N[C@@H](CCC(=O)NCCCC[C@H](NC(=O)[C@H](CCC(N)=O)NC(=O)[C@@H](NC(=O)[C@H](CO)NC(=O)[C@H](CC(C)C)NC(=O)[C@H](CC(=O)O)NC(=O)[C@H](CO)NC(=O)[C@@H](NC(=O)[C@H](Cc1ccccc1)NC(=O)[C@@H](NC(=O)CNC(=O)[C@H](CCC(=O)O)NC(=O)C(C)(C)NC(=O)[C@@H](N)Cc1ccc(O)cc1)[C@@H](C)O)[C@@H](C)O)[C@@H](C)CC)C(=O)N[C@@H](CC(=O)O)C(=O)N[C@@H](CCCCN)C(=O)N[C@@H](CCCNC(=N)N)C(=O)N[C@@H](C)C(=O)N[C@@H](C)C(=O)N[C@@H](CCC(N)=O)C(=O)N[C@@H](CC(=O)O)C(=O)N[C@@H](Cc1ccccc1)C(=O)N[C@H](C(=O)N[C@@H](CCC(=O)O)C(=O)N[C@@H](Cc1c[nH]c2ccccc12)C(=O)N[C@@H](CC(C)C)C(=O)N[C@@H](CCCCN)C(=O)N[C@@H](CC(N)=O)C(=O)NCC(=O)NCC(=O)N1CCC[C@H]1C(=O)N[C@@H](CO)C(=O)N[C@@H](CO)C(=O)NCC(=O)N[C@@H](C)C(=O)N1CCC[C@H]1C(=O)N1CCC[C@H]1C(=O)N1CCC[C@H]1C(=O)N[C@@H](CO)C(N)=O)[C@@H](C)CC)C(=O)O` [SEQ ID NO: 12, Y-Aib-E-G-T-F-T-S-D-L-S-I-Q-K(γE-x53)-DKRAAQDFIEWLKNGGPSSGAPPPS-NH2] showed a solubility at 2 h in “physchem” (pH 4.5) of over 1000 µg/mL. In addition, the solubility at 2 h in “physchem” (pH 7.4) was over 1000 µg/mL. In data set [1], the “blood glucose compared to db/db control mice, 24 h profile” value is on record as “significant decrease in blood glucose”. Besides, the 50% effective concentration (EC50) on human GIP receptor worked out at 8.9 pM. In the data set “in vivo”, this compound had a Cmax of 3790 ng/mL and a half-life of 2.8 h. In addition, the “reduction of feed intake after 22 hours” value in the data set on female NMRI-mice is on record as 71%.
With `CCCCCCCCCCCCCCCC(=O)N[C@@H](CCC(=O)NCCCC[C@H](NC(=O)[C@H](CCC(N)=O)NC(=O)[C@@H](NC(=O)[C@H](CO)NC(=O)[C@H](CC(C)C)NC(=O)[C@H](CC(=O)O)NC(=O)[C@H](CO)NC(=O)[C@@H](NC(=O)[C@H](Cc1ccccc1)NC(=O)[C@@H](NC(=O)CNC(=O)[C@H](CCC(=O)O)NC(=O)C(C)(C)NC(=O)[C@@H](N)Cc1ccc(O)cc1)[C@@H](C)O)[C@@H](C)O)[C@@H](C)CC)C(=O)N[C@@H](CCC(=O)O)C(=O)N[C@@H](CCCCN)C(=O)N[C@@H](CCCNC(=N)N)C(=O)N[C@@H](C)C(=O)N[C@@H](C)C(=O)N[C@@H](CCC(N)=O)C(=O)N[C@@H](CCC(=O)O)C(=O)N[C@@H](Cc1ccccc1)C(=O)N[C@H](C(=O)N[C@@H](CCC(=O)O)C(=O)N[C@@H](Cc1c[nH]c2ccccc12)C(=O)N[C@@H](CC(C)C)C(=O)N[C@@H](CCCCN)C(=O)N[C@@H](C)C(=O)NCC(=O)NCC(=O)N1CCC[C@H]1C(=O)N[C@@H](CO)C(=O)N[C@@H](CO)C(=O)NCC(=O)N[C@@H](C)C(=O)N1CCC[C@H]1C(=O)N1CCC[C@H]1C(=O)N1CCC[C@H]1C(=O)N[C@@H](CO)C(N)=O)[C@@H](C)CC)C(=O)O` [SEQ ID NO: 34, Y-Aib-E-G-T-F-T-S-D-L-S-I-Q-K(γE-x53)-EKRAAQEFIEWLKAGGPSSGAPPPS-NH2] (H-Y[Aib]EGTFTSDLSIQK([γGlu-Palmitoyl])EKRAAQEFIEWLKAGGPSSGAPPPS-NH2), in data set [2], the concentration peaked (Cmax) at 5130 ng/mL and the half-life is 2.8 h. In addition, the EC50 at human GLP-1 receptor came to 4.6 pM. At human glucagon receptor, the EC50 is 11600 pM.
